Results: US5496697A, “Methods and apparatus for detecting the effect of cell affecting agents on living cells” (priority 1993, dated 1996)
Where two headings read alike, the source gives them in different places.

Tests used:
[1] = cited from earlier work
[2] = tested on: MDCK cells; assay: metabolic rate of MDCK cells grown on the silicon sensor surface; format: cell-based, canine
[3] = tested on: MDCK cells; assay: metabolic rate of MDCK cells grown on a cover slip; format: cell-based, canine; details: for inhibition at 10000 µM: 10 mM theophylline
[4] = tested on: normal human keratinocytes; assay: metabolic rate of normal human keratinocytes exposed to irritants in the micro flow chamber (silicon sensor); format: cell-based; details: for IC50: Homo sapiens, Keratinocyte, read-out: -log10 (MRD50) (converted)
[5] = tested on: MES-SA; details: previously characterized; cited from earlier work
[6] = tested on: Dx5; assay: cytotoxicity in Dx5 in the silicon microphysiometer; details: for time at which cytotoxicity is manifest: 100 μM, Dx5
[7] = tested on: MES-SA; assay: cytotoxicity in MES-SA in the silicon microphysiometer
[8] = tested on: MDCK cells; assay: cells; details: Canis lupus familiaris
Protocol: MDCK cells in a confluent T-75 flask were trypsinized in order to remove them from their growth container. The cells were centrifuged at 2000 RPM for 5 minutes and the supernatant was discarded. The cells were resuspended in 5 mL of medium and centrifuged for 5 minutes at 3000 RPM. […] The cells were centrifuged for 3 minutes at 3000 RPM to pellet the cells. A 2 μL aliquot was taken directly from the cell pellet and spread over an approximate area of 40 mm^2 on the silicon sensor surface (in a partially assembled chamber).

[9] = tested on: PGE1 receptor; assay: metabolic rate of M1C-2 cells stimulated through the PGE1 receptor; format: cell-based, mouse; details: PGE1, FIG. 27
[10] = tested on: Proteus mirabilis; format: cell-based; details: carbon source in medium; FIG. 22
From the text: While this method of serial delivery of selective substrates has certain potential advantages, parallel delivery of selective substrates to separate catches of bacteria could also be useful under certain circumstances. Furthermore, if bacteria are used for screening for antibiotic susceptibility or antibiotic activity, parallel delivery to separate catches may well be more appropriate because of potential problems of intereactions of drugs.
The bacteria, E. coli and Proteus mirabilis , were prepared as suspensions of about 5×10^8 cells/mL in a growth medium and then diluted into a sterile test medium containing glucose (Bactopeptone, 2 g/L; NACl, 5 g/L; K2 HPO4, 1.7 mM; glucose, 1 g/L; pH 7.3 ). With the controlling electrode piston in the raised position, as disclosed in pending U.S. patent application, Ser. No. 876,925, filed Jun. 20, 1986, now U.S. Pat. No. 5,292,846 one mL of bacterial suspension containing a known number of bacteria was flowed through the device such that the cells were retained adjacent to the silicon sensor surface by a Nucleopore membrane situated parallel to the surface. The cells were pulsed with the same glucose containing test medium, the piston was then lowered to decrease the volume surrounding the cells, and the change in pH due to bacterial metabolism was monitored. […] After lowering the piston the pH change was again monitored. […]

[11] = tested on: MDCK cells; assay: steady-state potential of MDCK cells grown on the silicon sensor surface; format: cell-based, canine
From the text: It contains information on the pH of the small aqueous compartment between the cells and the sensor, and it contains information about trans-cellularpotentials, which are essentially batteries in series with the electronic circuit of the sensor.
The steadystate potential reported by the sensor (with fluid flow on) decreased gradually from the time the sensor was activated until the PMA was introduced. […] This signal is a composite of the trans-cellular potential and the sub-cellular pH (changes in the latter corresponding to 59 mV per pH unit).

[12] = tested on: E. coli; assay: response of E. coli to antibiotics in the flow cell; format: cell-based; details: FIG. 24
[13] = tested on: murine macrophage-like line P388D1; assay: acidification rate of P388D1 cells trapped in etched wells; format: cell-based
Protocol: For many types of mammalian cells, a confluent monolayer (equivalent to about 10^7 cells/mL) commonly produces acidification rates within a factor of two of 100 μV/s. At 59 mV per pH and medium buffer capacity of 1 mM, this corresponds to a calculated net rate of H+ production of ~1·10^8 /s for a typical cell. The metabolic sources of these protons depend on the nutrients in the culture medium and the metabolic pathways that are active in the cells. Some insight into this can be gained using auxiliary biochemical measurements and specific metabolic poisons.
It is reversible, with a recovery time of about 20 min. after the removal of the uncoupler. Dose-response experiments show a maximum stimulation of the acidification rate near 2-5 μM CCCP, Presumably the mechanism is a combination of increased CO2 production and the stimulation of glycolysis to maintain homeostasis.

[14] = concentrations necessary to depress metabolism of keratinocytes
[15] = classification by in vivo tests such as the Draize test

Compound: CC(O)CO (stereo not shown) [Propylene glycol]
- In-Vivo Irritancy ([1]; in vivo): Mild

Compound: N=C(N)NC(=O)c1nc(Cl)c(N)nc1N [amiloride]
- inhibition at 1500 µM ([2]; Canis lupus familiaris, MDCK, 1.5 mM amiloride, immediate, read-out: decrease in apparent metabolic rate vs. medium only): 20%
- activation at 1500 µM ([3]; Canis lupus familiaris, MDCK, 1.5 mM amiloride, gradual, read-out: increase of metabolic rate above medium only): ≤ 16%
- metabolic rate after exposure was ceased ([3]; after 1.5 mM amiloride): returned to the original control value and then gradually continued to decline

Compound: CCCCO [n-Butanol, 1-butanol]
- IC50 [4, 14]: 20 mM
- In-Vivo Irritancy [1, 15]: Moderate

Compound: COc1cccc2c1C(=O)c1c(O)c3c(c(O)c1C2=O)C[C@@](O)(C(=O)CO)C[C@@H]3O[C@H]1C[C@H](N)[C@H](O)[C@H](C)O1 [doxorubicin]
- sensitivity of MES-SA [5]: sensitive
- time at which decreased acidification rates are evident ([6]; 1 μM doxorubicin, Dx5, FIG. 45): > 50 h
- time at which cytotoxicity is manifest [6]: 2.5 h
- time at which decreased acidification rates are evident ([7]; 1 μM doxorubicin, FIG. 45): 15 h
- time at which cytotoxicity is manifest ([7]; 100 μM): 0.5 h

Compound: CNC[C@H](O)c1ccc(O)c(O)c1 [epinephrine]
- activation at 3 µM ([2]; Canis lupus familiaris, MDCK, read-out: additional increase in metabolic rate on re-exposure): 7%
- activation at 3 µM ([2]; Canis lupus familiaris, MDCK, read-out: increase in metabolic rate): 20%
- activation at 3 µM ([2]; Canis lupus familiaris, MDCK, read-out: increase in metabolic rate over the control rate on re-exposure): 20%
- activation at 3 µM ([2]; Canis lupus familiaris, MDCK, read-out: metabolic rate above control rate after removal): 12%
- inhibition at 208 µM ([8]; read-out: decrease in metabolic rate vs. medium only): 3%
- inhibition at 3 µM ([8]; read-out: decrease in metabolic rate vs. rate immediately after removal of the higher concentration): 4.5%

Compound: CO [Methanol]
- In-Vivo Irritancy [1, 15]: Moderate-mild

Compound: NC(=O)CC[C@@H]1NC(=O)[C@H](Cc2ccccc2)NC(=O)[C@H](Cc2ccc(O)cc2)NC(=O)[C@@H](N)CSSC[C@@H](C(=O)N2CCC[C@H]2C(=O)N[C@@H](CCCN=C(N)N)C(=O)NCC(N)=O)NC(=O)[C@H](CC(N)=O)NC1=O [vasopressin]
- increase in metabolic rate over control values [2]: 14%
- increase in metabolic rate over the rate in 0.1 μM vasopressin [2]: 19%
- increase over the control rate value [2]: 42%
- increase in metabolic rate [3]: no increase in metabolic rate was observed

Compound: CC[C@H](C)[C@@H]1NC(=O)[C@H](Cc2ccc(O)cc2)NC(=O)[C@@H](N)CSSC[C@@H](C(=O)N2CCC[C@H]2C(=O)N[C@@H](CC(C)C)C(=O)NCC(N)=O)NC(=O)[C@H](CC(N)=O)NC(=O)[C@H](CCC(N)=O)NC1=O [oxytocin]
- immediate change in metabolic rate [3]: did not result in any immediate change
- recovery of metabolic rate after removal [3]: 100%
- time to full recovery of metabolic rate after removal [3]: up to 10 minutes
- gradual decrease of metabolic rate ([3]; mdck, 1 µM): up to 10%

Compound: CCCCC[C@H](O)/C=C/[C@H]1[C@H](O)CC(=O)[C@@H]1CCCCCCC(=O)O [PGE1, prostaglandin E1]
- increase in metabolic rate at peak [9]: 80%
- time of peak [9]: approximately 1000 seconds
- time of return to base line metabolic rates [9]: 4000 s

Compound: Cn1c(=O)c2[nH]cnc2n(C)c1=O [theophylline]
- activation at 111 µM ([2]; Canis lupus familiaris, MDCK, read-out: increase in metabolic rate vs. control values on removal, after 111 μM theophylline): 28%
- inhibition at 111 µM ([2]; Canis lupus familiaris, MDCK, 111 μM theophylline (therapeutic level), read-out: decrease in metabolic rate): ~10%
- inhibition at 10000 µM ([2]; Canis lupus familiaris, MDCK, 10 mM theophylline, read-out: decrease in metabolic rate vs. control value): 47%
- time of return of metabolic rate to the control value ([2]; after removal of 10 mM theophylline): ten
- inhibition at 10000 µM ([3]; Canis lupus familiaris, MDCK, initial, read-out: decrease in metabolic rate): 59%
- inhibition at 10000 µM ([3]; Canis lupus familiaris, MDCK, read-out: metabolic rate below the control value after gradual increase): 48%
- activation at 10000 µM ([3]; Canis lupus familiaris, MDCK, after 10 mM theophylline, read-out: increase of metabolic rate over the control value on removal): 30%

Compound: CCCCCCCCCCCCOS(=O)(=O)[O-].[Na+] [Na dodecyl sulfate, sodium dodecyl sulfate]
- IC50 [4]: 0.126 mM
- In-Vivo Irritancy [1, 15]: Severe-moderate

Compound: benzalkonium chloride [Benzalkonium Cl]
- decrease of cellular metabolic rate between two successive administrations ([4]; 30 μg/ml): real decrease of cellular metabolic rate between the two administrations
- recovery of metabolic rate after washout of irritant ([4]; FIG. 12): no recovery was obtained
- -log10 (MRD50) [4, 14]: 4.1
- In-Vivo Irritancy [1, 15]: Severe

Compound: CC(C)=O [Acetone]
- In-Vivo Irritancy [1, 15]: Moderate-mild

Compound: NC(N)=O [urea]
- change of pH [10]: increases the pH

Compound: C[S+](C)[O-] [Dimethyl sulfoxide]
- recovery of metabolic rate after washout of irritant ([4]; separate test, FIG. 13): recover from DMSO but not from ethanol was shown
- In-Vivo Irritancy ([1]; in vivo): Mild

Compound: CC[C@]1(O)C[C@H]2CN(CCc3c([nH]c4ccccc34)[C@@](C(=O)OC)(c3cc4c(cc3OC)N(C=O)[C@H]3[C@@](O)(C(=O)OC)[C@H](OC(C)=O)[C@]5(CC)C=CCN6CC[C@]43[C@@H]65)C2)C1 [vincristine]
- sensitivity of MES-SA [5]: sensitive
- time at which cytotoxicity is manifest [6]: 10 h
- time at which cytotoxicity is manifest ([7]; 100 μM vincristine, FIG. 46): 5 h

Compound: CCCCCCCCCCCCCC(=O)O[C@@H]1[C@@H](C)[C@@]2(O)[C@@H](C=C(CO)C[C@]3(O)C(=O)C(C)=C[C@@H]23)[C@@H]2C(C)(C)[C@]12OC(C)=O [PMA, Phorbol myristate acetate]
- rise in metabolic rate at the peak ([2]; 10 ng/ml PMA): more than a doubling
- time of peak of metabolic rate ([2]; 10 ng/ml PMA): near an hour later
- metabolic rate upon addition of PMA ([3]; cover slip, data not shown): increase in metabolic rate
- steady-state potential reported by the sensor ([11]; 10 ng/ml PMA): dropped quickly to a minimum
- time to minimum of steady-state potential ([11]; 10 ng/ml PMA): about forty
- steady-state potential after removal of PMA ([11]; by the end of the experiment): returned to a value near its initial one

Compound: CC1(C)S[C@@H]2[C@H](NC(=O)Cc3ccccc3)C(=O)N2[C@H]1C(=O)O [penicillin]
- response to antibiotic [12]: do not respond

Compound: CCO [Ethanol]
- recovery of metabolic rate after washout of irritant ([4]; FIG. 12): substantial recovery
- recovery of metabolic rate after washout of irritant ([4]; separate test, FIG. 13): not from ethanol
- In-Vivo Irritancy [1, 15]: Moderate-mild

Compound: N#CC(C#N)=NNc1cccc(Cl)c1 [CCCP, carbonylcyanide chlorophenylhydrazone]
- recovery time after removal of the uncoupler ([13]; 20 μmM CCCP): about 20 min.
- stimulation of acidification rate ([13]; 20 μmM CCCP, FIG. 42): prompt, faster than the resolution of the apparatus
- concentration of maximum stimulation of the acidification rate ([13]; dose-response experiments): 2 to 5 µM

Compound: polymyxin
- response to antibiotic [12]: do respond

Compound: O=C[C@H](O)[C@@H](O)[C@H](O)[C@H](O)CO [glucose]
- change of pH [10]: decreased the pH
